Results taken from patent publication US12570923B2, “Tuning sulfonation and controlling oleo-furan surfactant compositions” (SIRONIX RENEWABLES, INC., priority 2021, dated 2026).

How the values were obtained:
Format in all cases: physicochemical
[1] = Surface tension at critical micelle concentration; conditions: at CMC
Experimental: (§1) Certain surfactant properties and performance metrics of synthesized surfactants structures according to General Structure 1 (GS1), including several exemplary surfactant blends prepared according to the methods disclosed previously herein, were measured. […] For example, the α-OMFS-12-1/O surfactant with a sulfonate on the surfactant's alkyl chain provides faster wetting kinetics, as compared to the ring sulfonate 4-OMFS-12-1/O which has slower fabric wetting kinetics yet generates more foam in high shear conditions, or the disulfonate surfactant sulfonated on both the ring and alkyl chain (4,α-OMFS-12-1/O) which has slower fabric wetting and generates less foam than either of the aforementioned monosulfonates surfactants, yet has a higher solubility that can be helpful in building product formulations. Accordingly, these differing performance metrics can be leveraged by selecting the particular disclosed surfactant structure corresponding to the performance metrics useful in a specific application of the surfactant structure.

[2] = Critical micelle concentration
Experimental: as §1

[3] = Solubility in deionized water; conditions: deionized water at 20° C.
Experimental: Certain surfactant properties and performance metrics of synthesized surfactants structures according to General Structure 1 (GS1), including several exemplary surfactant blends prepared according to the methods disclosed previously herein, were measured.

[4] = Krafft point (temperature below which the surfactant forms a solid precipitate)
Experimental: as §1

Surface Tension at critical micelle concentration [1] [mN/m]	CMC (critical micelle concentration) [2] [ppm]	Solubility [3] [mg/mL]	Krafft Point [4] [°C]	Compound
42	1480	800	<0	CCCCCCCCCCCC(=O)c1cc(S(=O)(=O)[O-])c(C)o1.[Na+] [Na^+ 4-OMFS-12-1/0]
		800	<0	CCCCCCCCCCC(C(=O)c1ccc(C)o1)S(=O)(=O)[O-].[Na+] (stereo not drawn) [Na^+ α-OMFS-12-1/0]
39	3545	500	<0	CCCCCCCCCCC(C(=O)c1cc(S(=O)(=O)O)c(C)o1)S(=O)(=O)O.N.N (stereo not drawn) [NH4^+4,α-OMFS-12-1/0]
		600	<0	CCCCCCCCCCCCC(C(=O)c1cc(S(=O)(=O)[O-])c(C)o1)S(=O)(=O)[O-].[Na+].[Na+] (stereo not drawn) [Na^+ 4,α-OMFS-14-1/0]
		900	<0	CCCCCCCCCCC(C(=O)c1cc(S(=O)(=O)[O-])c(C)o1)S(=O)(=O)[O-].[Na+].[Na+] (stereo not drawn) [Na^+ 4,α-OMFS-12-1/0]
			<0	CCCCCCCCCCCCCCCCC(C(=O)c1cc(S(=O)(=O)[O-])c(C)o1)S(=O)(=O)[O-].[Na+].[Na+] (stereo not drawn) [Na^+ 4,α-OMFS-18-1/0]
